Data as given in US20240035973A1, “METHODS AND COMPOSITIONS OF STABLE THALLIUM FLUX ASSAYS FOR DETECTING MODULATORS OF ION CHANNELS” (ION Biosciences, priority 2022, published 2024).
Read-outs that look alike come from different tables or passages of the source.

Experiments:
GIRK1/2 = target: T1, GIRK1/2 (Homo sapiens, UniProt P48051+P48549); experiment: thallium efflux assay by flow cytometry in CHO GIRK1/2 cells; type: cell-based
T1 construct: expressed in transfected cells; host or cells: CHO (Chinese hamster ovary) cells overexpressing GIRK1 and GIRK2
T1 sequence (P48549 1-501): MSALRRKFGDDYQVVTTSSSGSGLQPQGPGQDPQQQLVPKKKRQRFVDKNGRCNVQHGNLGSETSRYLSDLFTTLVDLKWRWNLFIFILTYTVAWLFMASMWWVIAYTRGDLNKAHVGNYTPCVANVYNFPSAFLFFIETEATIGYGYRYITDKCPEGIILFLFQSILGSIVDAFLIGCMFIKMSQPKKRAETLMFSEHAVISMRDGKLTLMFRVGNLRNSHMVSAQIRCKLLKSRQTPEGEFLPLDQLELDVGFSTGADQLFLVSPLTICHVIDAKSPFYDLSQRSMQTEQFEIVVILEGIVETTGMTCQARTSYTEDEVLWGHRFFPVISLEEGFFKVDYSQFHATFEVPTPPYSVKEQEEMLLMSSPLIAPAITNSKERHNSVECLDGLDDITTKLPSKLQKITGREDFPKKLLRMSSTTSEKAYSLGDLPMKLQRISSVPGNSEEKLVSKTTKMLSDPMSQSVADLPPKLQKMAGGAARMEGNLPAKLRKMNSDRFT
T1 sequence (P48051 1-423): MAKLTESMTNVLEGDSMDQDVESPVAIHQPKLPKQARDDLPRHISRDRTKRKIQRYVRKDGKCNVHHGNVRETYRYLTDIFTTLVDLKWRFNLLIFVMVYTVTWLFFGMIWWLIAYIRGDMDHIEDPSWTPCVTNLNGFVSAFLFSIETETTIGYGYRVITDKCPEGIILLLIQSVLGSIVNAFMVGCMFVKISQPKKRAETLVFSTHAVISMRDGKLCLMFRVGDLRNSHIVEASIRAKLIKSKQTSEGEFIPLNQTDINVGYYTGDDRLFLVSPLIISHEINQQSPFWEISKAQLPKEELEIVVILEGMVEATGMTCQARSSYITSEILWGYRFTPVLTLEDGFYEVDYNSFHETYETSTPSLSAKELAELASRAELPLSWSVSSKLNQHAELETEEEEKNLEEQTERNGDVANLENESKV
Protocol: CHO GIRK cells were treated with HEPES-Buffered Hanks Balanced Salt Solution (HHBSS, Control) or GIRK activator, VU0466551 (VU551). Data was acquired 50 minutes after addition of 1 μM VU551 using a BD Accuri C6 Flow Cytometer. […] FIG. 18 depicts an overlay of histograms of CHO GIRK1/2 cell fluorescence in treated and control cells.
FIG. 19 depicts the kinetic profile of CHO GIRK1/2 median cell fluorescence. Sample data was acquired before and at different time points after the addition of 3 μM GIRK activator, VU0466551 (VU551) or HHBSS (control). A slow increase in fluorescence is observed in the untreated group.

GIRK [1] = target: T2, GIRK (Homo sapiens, UniProt P48051+P48549); set-up: expressed in transfected cells; host or cells: CHO-K1 cells overexpressing GIRK channels; settings: potassium indicator; plate reader or microscopy; read-out: EC50, literature reported value (calculated EC50s in line with it); cited from earlier work
T2 sequence (P48549 1-501): T1 sequence (P48549 1-501)
T2 sequence (P48051 1-423): T1 sequence (P48051 1-423)

GIRK [2] = target: T2, GIRK; experiment: traditional thallium flux assay (influx), dose response; type: cell-based; settings: traditional thallium flux method, CHO GIRK cells
Protocol: FIG. 5: (Left) Overlay of normalized dose response curves acquired using new method. Data was acquired using different analytical methods or instruments, and all three result in similar profiles and reported EC50 values.
In a comparative test of the efflux method disclosed herein, EC50 values were determined using VU551 as the effector. Three different instruments were used to monitor the change in fluorescence: 1- kinetic imaging plate reader (Hamamatsu FDSS), 2 - fluorescent microscope; 3- fluorescent plate reader. FIG. 5 depicts an overlay of normalized dose response curves acquired using the efflux method described herein. Regardless of the method of data collection, all three instruments provided similar profiles and reported similar EC50 values. In the right graph of FIG. 5, a dose response curve acquired using traditional thallium flux assay methods is shown. […] The use of a plate reader to determine the EC50 in the efflux method produced the closest result to the traditional method.

Cc1cc(NC(=O)Nc2ccc(F)c(F)c2)n(Cc2ccccc2)n1 [VU551]
Mean cell fluorescence of the treated group (GIRK1/2; 1 μM, 50 minutes after addition, BD Accuri C6 Flow Cytometer, control 4.5M RFUs): 2.5 M | change in median cell fluorescence (kinetic profile) (GIRK1/2; 3 μM, before and at different time points after addition): rapid loss in fluorescence | EC50 (GIRK [1]): ~75 nM | EC50 (GIRK [2]): 77 nM
